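A five-concentration, 48-hour dose response in 96-well plates underlies each endpoint, interpolated linearly between surrounding concentrations. TGI: total growth inhibition.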
How the values were obtained:
Test in all cases: NCI anticancer screen, dose series, 48 h
SN12C renal = system: SN12C renal
M14 melanoma = system: M14 melanoma
OVCAR-8 ovarian = system: OVCAR-8 ovarian
MCF7 breast = system: MCF7 breast
SF-295 CNS = system: SF-295 CNS
U251 CNS = system: U251 CNS
TK-10 renal = system: TK-10 renal
BT-549 breast = system: BT-549 breast
SW-620 colon = system: SW-620 colon
MALME-3M melanoma = system: MALME-3M melanoma
SK-MEL-5 melanoma = system: SK-MEL-5 melanoma
HL-60(TB) leukemia = system: HL-60(TB) leukemia
CCRF-CEM leukemia = system: CCRF-CEM leukemia
A549 NSCLC = system: A549 NSCLC
HOP-92 NSCLC = system: HOP-92 NSCLC
UO-31 renal = system: UO-31 renal
CAKI-1 renal = system: CAKI-1 renal
RXF 393 renal = system: RXF 393 renal
NCI-H522 lung = system: NCI-H522 lung
MDA-N = system: MDA-N

Compound	TGI (SN12C renal) [µM]	TGI (M14 melanoma) [µM]	TGI (OVCAR-8 ovarian) [µM]	TGI (MCF7 breast) [µM]	TGI (SF-295 CNS) [µM]	TGI (U251 CNS) [µM]	TGI (TK-10 renal) [µM]	TGI (BT-549 breast) [µM]	TGI (SW-620 colon) [µM]	TGI (MALME-3M melanoma) [µM]	TGI (SK-MEL-5 melanoma) [µM]	TGI (HL-60(TB) leukemia) [µM]	TGI (CCRF-CEM leukemia) [µM]	TGI (A549 NSCLC) [µM]	TGI (HOP-92 NSCLC) [µM]	TGI (UO-31 renal) [µM]	TGI (CAKI-1 renal) [µM]	TGI (RXF 393 renal) [µM]	TGI (NCI-H522 lung) [µM]	TGI (MDA-N) [µM]
Cn1c(=O)n2n(c1=O)[C@@H](c1ccccc1)[C@H]2c1ccccc1	> 100	> 100	> 100	> 100	> 100	> 100	> 100	> 100	> 100	> 100	> 100	> 100	> 100	> 100	> 100	> 100	> 100	> 100		
COC(=O)C(=O)C(C(=O)OC)C(=O)C(=O)Nc1cc(Cl)c(Cl)cc1Cl (stereo not given)	> 100	> 100	> 100		> 100	> 100	> 100			> 100	> 100	> 100	> 100	> 100	> 100	> 100	> 100	> 100	> 100	
Cn1nc2ccccc2cc1=O	> 100	> 100	> 100		> 100	> 100	> 100		> 100	> 100	> 100		> 100	> 100	> 100	> 100	> 100			
CC(C)C1COC(c2ccc3ccccc3c2-c2c(O[Si](C)(C)C(C)(C)C)ccc3ccccc23)=N1 (stereo not given)	33.2	29.2	35.3		32.1		33		35.1	32.9	31.8	33.1	35.5	31.7	26.6	28.2	45.2	34.7	29.8	
CCOC(=O)Nn1c(C)cc(C(=O)OC)c1C	> 100	> 100	> 100		> 100	> 100	> 100		> 100	> 100	> 100	> 100	> 100	> 100		> 100	> 100	> 100	> 100	
N#CCc1nc(-c2cc3c(ccc4ccccc43)oc2=O)cs1	> 100	> 100	> 100	> 100	71.2	38.5	38.9	31.5	> 100	> 100	> 100	> 100	> 100	> 100	44.5	> 100	> 100	74	27.4	
COc1ccc2c(c1)OC(c1ccccc1O)CC2=O (stereo not given)	> 100	> 100	> 100		> 100	> 100	> 100		> 100	> 100	> 100		> 100	> 100		96.8	> 100		92.8	
OC(CC(O)(C(F)(F)F)C(F)(F)F)C(O)c1ccco1 (stereo not given)	> 10	> 10	> 10	> 10	> 10	> 10	> 10		> 10	> 10	> 10	> 10	> 10	> 10		> 10	> 10	> 10	> 10	> 10
C#Cc1cc(CN(CC(=O)OC(C)(C)C)CC(=O)OC(C)(C)C)nc(CN(CC(=O)OC(C)(C)C)CC(=O)OC(C)(C)C)c1	> 100	28.6	31.6		> 100	27.8	> 100		21.1	20.9	11.3	9.72	7.93	89.4		26	33.1	14.2	4.22	
CC1=C2CN(C(=O)OCC(C)C)CCC2C2=C(C(=O)c3ccccc3C2=O)C1C (stereo not given)	> 10	> 10	> 10	> 10	> 10		> 10		> 10	> 10	> 10	> 10	> 10	> 10	> 10		> 10	> 10		> 10
COC(=O)[C@@H]1OC(C)(c2ccccc2)O[C@H]1C(=O)OC		> 100	> 100	> 100	> 100	> 100	> 100		> 100	> 100	> 100	> 100	> 100	> 100	> 100	> 100	> 100	> 100	> 100	> 100
O=C(/C=C/c1ccc2c(c1)OCO2)CC(=O)/C=C/c1ccc2c(c1)OCO2	> 100	> 100		> 100	> 100	> 100	> 100		> 100	> 100	> 100	> 100	> 100	> 100		> 100	> 100	> 100	> 100	> 100
O=C(O)C1=NN(c2ccc(S(=O)(=O)O)cc2)C2(C1)SCC(=O)N2c1nc2ccccc2s1 (stereo not given)	> 100	> 100	> 100	> 100	> 100	> 100	> 100	> 100	> 100	> 100	> 100	> 100	> 100	> 100	> 100	> 100	> 100	> 100	> 100	
Fc1ccc2c3c([nH]c2c1)CCNC3	> 100	> 100	> 100	> 100	> 100	> 100	> 100		> 100	> 100	> 100	> 100	> 100	> 100	85.9	99.7		> 100		
O=C1NC2C(CCO)CC=C[C@H]2c2cc3c(cc21)OCO3 (stereo not given in full)	> 100	> 100	> 100		> 100	> 100	> 100		> 100	> 100		> 100	> 100	> 100		> 100		> 100	> 100	
COCN1C(=O)[C@@H]2CCCN2C(=O)c2ccc([N+](=O)[O-])cc21	> 100	> 100	> 100	> 100	> 100	> 100	> 100	> 100	> 100		> 100	> 100	> 100	> 100	> 100	> 100	> 100	> 100	> 100	
O=C(N/N=C(\c1nc2ccc(Cl)cc2[nH]c1=O)C(O)c1ccccc1Cl)c1ccncc1 (stereo not given)		> 100			> 100		> 100		> 100	> 100	> 100	> 100	> 100	> 100	> 100	> 100	> 100	> 100	> 100	
CN1N=C2c3ccccc3CC[C@H]2C1c1cccc(O)c1 (stereo not given in full)	> 100	> 100	> 100		> 100	> 100	> 100		> 100	5.01		> 100	> 100	> 100	> 100	> 100		> 100	> 100	
Cn1c(=O)cc(N2CCCC2)[nH]c1=O	> 100	> 100	> 100	> 100	> 100	> 100	> 100	> 100	> 100	> 100	> 100	> 100	> 100	> 100	> 100		> 100		> 100	
CCCc1c(C(=O)OCC)[nH]c(C(=O)CCC(=O)c2[nH]c(C(=O)OCC)c(CCC)c2C(=O)OCC)c1C(=O)OCC	> 100	> 100	> 100		> 100	> 100	> 100		> 100	> 100	> 100	> 100	> 100	> 100	> 100	> 100	> 100	> 100	> 100	
COC1=CC(=O)C2C(C1=O)C(c1ccc(OC)c(OC)c1)[C@H]2C (stereo not given in full)		34.9	42.5		> 100	> 100	33.3		40.6	35.3	61.4	46.7	62.4	> 100	36.6	> 100	24	35.2	26.1	
CN(C)c1nc(=NCc2cccnc2)ss1	> 10	> 10	> 10		> 10		> 10		> 10	> 10	> 10	> 10	> 10	> 10	> 10		> 10	> 10		> 10
O=C(CC(=O)N1N=C(N(c2ccccc2)c2ccccc2)CC1c1ccccc1)Nc1ccccc1 (stereo not given)		> 100	> 100	> 100	> 100	> 100	> 100	> 100	> 100		> 100	> 100	> 100	> 100	> 100	> 100	> 100	> 100	> 100	
CC(C)(C)C(=O)/C=C/c1cccc(Oc2ccccc2)c1	27.4	34.7	27.8		25.8	23.5				36.2	30.4		31	48.8		28.8		30	29.8	
COC(=O)N/N=C(/Cc1occc(=O)c1O)C(=O)Nc1ccc([N+](=O)[O-])cc1[N+](=O)[O-]	> 100	> 100	> 100		> 100	> 100	> 100		> 100	> 100	> 100	> 100	> 100	> 100	> 100	> 100	> 100	> 100	> 100	
C/C(=N/NC(N)=S)C(CN(C)C)C(C1=C(O)c2ccccc2OC1)c1ccccc1 (stereo not given)	> 100	> 100	> 100		> 100	> 100	> 100		> 100	> 100	> 100	> 100	> 100	> 100		> 100	> 100	> 100	> 100	
COc1ccc(C2S/C(=C\c3ccccc3)C(=O)N2NC(=O)Cc2ccccc2)cc1 (stereo not given)	> 100	> 100	> 100		> 100	> 100	> 100		> 100	> 100	> 100	> 100	> 100	> 100	> 100	> 100	> 100	> 100	> 100	
O=C(Nc1ccc(Cl)cc1)NS(=O)(=O)c1c(-c2ccccc2)oc2ccccc2c1=O	> 100		> 100		> 100	> 100	86.9		> 100	> 100	> 100	> 100	> 100	> 100	> 100	> 100	> 100	> 100	31.2	> 100

— PubChem BioAssay (NCI)
